Target: Poly [ADP-ribose] polymerase 1 (Homo sapiens, UniProt P09874)
Experiment: PARP Enzyme Assay: The PARP enzyme assay is set up on ice in a volume of 100 microliters consisting of 100 mM Tris-HCl (pH 8.0), 1 mM MgCl2, 28 mM KCl, 28 mM NaCl, 0.1 mg/ml of DNase I activated herring sperm DNA (Sigma, Mo.), 3.0 micromolar [3H]nicotinamide adenine dinucleotide (470 mci/mmole), 7 micrograms/ml PARP enzyme, and various concentrations of the compounds to be tested. The reaction is initiated by incubating the mixture at 25° C. After 15 minutes of incubation, the reaction is terminated by adding 500 microliters of ice cold 20% (w/v) trichloroacetic acid. The precipitate formed is transferred onto a glass fiber filter (Packard Unifilter-GF/B) and washed three times with ethanol. After the filter is dried, the radioactivity is determined by scintillation counting.

Chain of Poly [ADP-ribose] polymerase 1 (P09874 whole entry): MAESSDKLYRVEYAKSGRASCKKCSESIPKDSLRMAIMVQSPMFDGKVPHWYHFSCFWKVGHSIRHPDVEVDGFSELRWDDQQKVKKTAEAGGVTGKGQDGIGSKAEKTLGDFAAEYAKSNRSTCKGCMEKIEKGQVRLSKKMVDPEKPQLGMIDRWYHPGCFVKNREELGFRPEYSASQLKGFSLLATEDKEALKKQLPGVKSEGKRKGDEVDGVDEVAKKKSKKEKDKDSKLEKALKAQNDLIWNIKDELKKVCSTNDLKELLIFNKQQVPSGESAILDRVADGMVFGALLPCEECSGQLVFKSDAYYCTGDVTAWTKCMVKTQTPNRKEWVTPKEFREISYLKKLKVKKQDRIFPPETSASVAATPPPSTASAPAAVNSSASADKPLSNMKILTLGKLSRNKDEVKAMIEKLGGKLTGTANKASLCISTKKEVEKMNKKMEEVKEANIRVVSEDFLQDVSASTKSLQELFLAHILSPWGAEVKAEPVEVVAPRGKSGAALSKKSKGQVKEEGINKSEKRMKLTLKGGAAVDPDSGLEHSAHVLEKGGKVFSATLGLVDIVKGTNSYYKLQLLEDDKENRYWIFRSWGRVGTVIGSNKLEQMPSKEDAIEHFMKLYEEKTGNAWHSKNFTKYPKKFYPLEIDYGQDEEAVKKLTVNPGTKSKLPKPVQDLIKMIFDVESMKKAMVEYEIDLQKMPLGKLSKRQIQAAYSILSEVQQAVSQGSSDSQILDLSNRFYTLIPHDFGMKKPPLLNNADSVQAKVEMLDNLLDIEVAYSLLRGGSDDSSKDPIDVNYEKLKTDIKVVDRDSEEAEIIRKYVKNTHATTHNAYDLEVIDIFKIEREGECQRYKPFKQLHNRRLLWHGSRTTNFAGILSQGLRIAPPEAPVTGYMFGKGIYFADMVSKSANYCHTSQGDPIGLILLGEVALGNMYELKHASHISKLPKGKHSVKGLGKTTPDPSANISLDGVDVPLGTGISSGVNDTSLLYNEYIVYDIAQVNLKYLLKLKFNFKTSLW

Work on CCN(CC)CCN(CC)Cc1ccc2c(c1)-c1n[nH]c(=O)c3cccc(c13)O2 yielded an IC50 of 500 nM.
